# Source: patent US20250177357A1, “METHODS FOR TREATING HYPERTROPHIC CARDIOMYOPATHY” (priority 2021, published 2025)
# Values joined by “and” are separate entries in the source; they are usually repeats but may differ in a detail not shown here. Equal entries are not always repeated.
# Test system: healthy adults
# Experiment: Phase 1 pharmacodynamics by echocardiography (LVEF), SAD and MAD cohorts
# Assay type: in vivo, human
# Method: Echocardiography. For PD assessments of LVEF, echocardiograms for the SAD and MAD cohorts were interpreted by the echocardiography core laboratory and used for all data analysis and dose level review decisions while immediate local interpretation of the echocardiograms was performed for safety monitoring. […] Echocardiograms on day 3 (48 h after dosing) were obtained only if the 24 h LVEF had not returned to near or above baseline, as determined by the investigator. In the MAD cohorts, echocardiograms were obtained on day −1, pre-dose on day 1, and at 1.5 h post dose on days 2, 4, and 9, and at 1.5, 24, and 72 h post dose on day 14 (for the 5-mg and 10-mg cohorts) or on day 17 (for the 7.5-mg cohort). Echocardiograms were obtained 3 days after the last dose (on day 17 or 20) only if the participant's prior LVEF was not near or above baseline, as determined by the investigator.
# All participants who received ≥1 dose of study drug and had ≥1 pre-dose and ≥1 post-dose echocardiographic measurement were included in the PD analysis set. […] Descriptive statistics of the echocardiographic parameters were generated using SAS® Version 9.3 or higher.
# Dose-response analysis was performed using analysis of covariance (ANCOVA) to identify the least-squares mean difference (aficamten minus placebo). To analyze the impact of drug dose on echocardiographic parameters in the SAD and MAD cohorts, an inferential analysis was conducted on the PD analysis set using linear mixed models for repeated-measures analysis of covariance (ANCOVA). The ANCOVA used baseline value as a covariate, included treatment, time-point, and time-point-by-treatment interaction as fixed effects, and change from baseline as the dependent variable. The unstructured variance-covariance structure was used, and the model accounted for the time-point repeated measures. The ANCOVA analysis was conducted separately for each study part and for each PD parameter. The least-squares means, the difference in least squares means (active minus placebo), and the associated 2-sided 95% CIs were presented for each comparison.
# Analyses of concentration ‘bin’ and exposure-response were also performed using ANCOVA. SAS® PROC MIXED was used for all comparative analyses. […] A concentration bin ANCOVA was conducted using linear mixed models for repeated-measures analyses with concentration bin group as a fixed effect, baseline PD parameters as a covariate, change from baseline as the dependent variable, and a random intercept to adjust for the repeated measures. The unstructured variance-covariance structure was used. […] The ANCOVA compared the change in PD parameters between each bin versus the pooled placebo group. The least-squares means, the difference in least squares means (bin group minus placebo), and the associated 2-sided 95% CIs were presented for each comparison. The ANCOVA analysis was conducted separately for each study part. For all time-points at which both PK data and PD measures were available, the time-points were pooled for the analysis. […] From least to greatest, the data were then divided into 5 groups of observations (‘bins’), each consisting of 20% of the data points. Each bin was treated as a separate group.
# The above analysis was then repeated using concentration as a continuous variable to estimate the exposure-response trend. Both a random intercept effect and a random concentration effect were added to the ANCOVA. The estimate of the concentration slope, with corresponding 2-sided 95% CIs, and the ANCOVA analyses were presented for each study part.
# For all time-points at which both PK data and PD measures were available, the time points were pooled for the analysis. A nominal significance level of 5% was used for statistical comparisons, without adjustment for multiplicity.
# [1] = SAD 50 mg (n = 11), […] post dose
compound,measurement,setting,value
"CCc1nc(-c2ccc3c(c2)CC[C@H]3NC(=O)c2cnn(C)c2)no1 [aficamten, (R)—N-(5-(5-ethyl-1,2,4-oxadiazol-3-yl)-2,3-dihydro-1H-inden-1-yl)-1-methyl-1H-pyrazole-4-carboxamide]",Participants with absolute reductions in LVEF of ≥10% from baseline,10-mg MAD cohort,33%
same,Participants with absolute reduction in LVEF ≥5% from baseline,"MAD 7.5 mg once daily, 1 of 6",17%
same,Participants with absolute reduction in LVEF ≥5% from baseline,"MAD 10 mg once daily, 2 of 6",33%
same,Number of participants with reduction in LVEF ≥10%,MAD 10-mg cohort,2
same,Plasma aficamten concentrations with minimal suppression of LVEF in most participants,MAD cohorts,≤ 180 ng/mL
same,"A, mean change from baseline",[1],2.5 cm/s
same,"E, mean change from baseline",[1],-2.7 cm/s
same,"LV ET, mean change from baseline",[1],1.9 ms
same,Participants with absolute reduction in LVEF ≥5% from baseline,"SAD 1-, 10-, or 25-mg cohorts",no participants
same,Participants with absolute reduction in LVEF ≥5% from baseline,"SAD 3-mg cohort, 1 of 6",17%
same,Participants with absolute reduction in LVEF ≥10%,"SAD 40-mg cohort, 1 of 6",17%
same,Participants with absolute reduction in LVEF ≥5% from baseline,"SAD 40-mg cohort, 2 of 6",33%
same,Participants with reduction in LVEF to <50%,"SAD 50-mg cohort, 2 of 11",18%
same,Participants with absolute reduction in LVEF ≥5% from baseline,"SAD 50-mg cohort, 7 of 11",64%
same,LVEF of the individual participants with LVEF <50%,"SAD 50-mg cohort, core laboratory assessment",48.2% and 45.5%
same,Participants with absolute reduction in LVEF ≥5% from baseline,"SAD 75-mg cohort, 1 of 1",100%
same,Participants with reduction in LVEF to <50%,"SAD 75-mg cohort, 1 of 1",100%
same,Participants with absolute reduction in LVEF ≥10%,"SAD 75-mg cohort, 1 participant",100%
same,Reduction in LVEF to <50%,"any MAD cohort, core laboratory assessment",not observed
same,Time within which decreases in LVEF to <50% were reversible,following single doses,≤ 6 h
same,"Decrease in mean LVEF from baseline, least-squares mean difference vs placebo","single 50-mg dose, […] post dose, p=0.0001",5.5%
same,LVEF reached by 1 participant,"single dose of 75 mg, approximately […] after dosing",34.1%
